Test results as given in ChEMBL document CHEMBL1157539, “Thousands of chemical starting points for antimalarial lead identification” (Nature, 2010).

Each compound was assayed on Plasmodium falciparum (assay: GSK_TCMDC: Inhibition of Plasmodium falciparum 3D7 in whole erythrocytes, using parasite LDH activity as an index of growth.). Details: Plasmodium falciparum, 3D7.
Format: functional, organism-based
`C[C@H](Cc1ccc(C[C@@H](C)NC[C@H](O)c2cccc(Cl)c2)cc1)NC[C@H](O)COc1ccccc1` gave an XC50 of 1170 nM. `CC(NCCc1cccc(Cl)c1)C(O)c1ccc(OCCCCCCOc2ccc(C(O)C(C)NCCc3cccc(Cl)c3)cc2)cc1` (configuration not stated) gave an XC50 of 399 nM. With `Cc1cc2ncc(C(N)=O)c(Nc3ccc(N4CCOCC4)cc3)c2cc1S(C)(=O)=O` the XC50 was 675 nM. Compound `Cc1c(C)c2c(c(C)c1O)CCC(C)(CCC(=O)O)O2` (configuration not stated) has an XC50 of 691 nM. For `COc1cc(-n2cnc3cc(-c4ccc([N+](=O)[O-])cc4)sc3c2=O)ccc1OCCN1CCCC1`, the XC50 was 775 nM. `CC(C)C(C(=O)Nc1ccc2c(c1)OCO2)c1ccc(Cl)cc1` (configuration not stated) gave an XC50 of 717 nM. Compound `O=C(/C=C/c1ccc(C(F)(F)F)cc1)NCCCCCN1CCCN(C(=O)Nc2ccc(Cl)c(Cl)c2)CC1` has an XC50 of 421 nM. `Cc1cccc2nc(-c3ccc(-c4cccc(CNCc5cccc(N)c5)c4)cc3)[nH]c12` was tested, and the XC50 was 390 nM. `COC(=O)/C=C/c1ccc(CC(C)NCC(O)c2cccc(C(F)(F)F)c2)cc1` (configuration not stated) was tested, and the XC50 was 731 nM. `COc1ccc(C=CC(=O)NC(=O)c2ccccc2OC(=O)c2ccccc2)cc1OC` was tested, and the XC50 was 910 nM. `O=C(Nc1ccc(C(F)(F)F)cc1)c1cccc(S(=O)(=O)NC2CCN(CC3CCCCC3)CC2)c1` was tested, and the XC50 was 848 nM. `O=C(/C=C/c1ccc(Cl)c(Cl)c1)NC1CCC(N2CCC(c3c[nH]c4ccccc34)CC2)CC1` (configuration not stated) showed an XC50 of 876 nM. `N#CN1CC[C@@H](OC(=O)N[C@@H]2C[C@H]2c2ccccc2)C1` was tested, and the XC50 was 1340 nM. In the case of `CN1CCc2ccc(NC(=O)Nc3cccc([N+](=O)[O-])c3)cc2C1`, the XC50 is reported as 1100 nM. `c1cc(-c2ccc(CN3CCN(c4ccncc4)CC3)cc2)cc(-c2nc3ccccc3[nH]2)c1` showed an XC50 of 140 nM. `COc1ccc(Cl)cc1N1CCN(CCCNC(=O)c2ccc(-c3nc4cc(Cl)c(C)cc4[nH]3)c(F)c2)CC1` gave an XC50 of 185 nM. Compound `CCNc1cc(C(=O)N[C@@H](Cc2ccccc2)[C@H](O)CNC(C)(C)CC(C)(C)C)c(F)c(N2CCCCS2(=O)=O)c1` has an XC50 of 1010 nM. With `COc1cc2nc(N3CCC(CNC(=O)c4ccc(-c5ccc(C(=O)N(C)C)cc5OCCN(C)C)cc4)CC3)nc(N)c2cc1OC` the XC50 was 842 nM. In the case of `Nc1ccc(-c2nc3cc(C4=N[C@H]5CCCC[C@H]5N4)ccc3o2)cc1[N+](=O)[O-]`, the XC50 is reported as 1120 nM. Work on `CN1CCN(c2cc3c(cc2Cl)CCN3C(=O)Cc2ccc(Cl)c(NC(=O)Nc3cccc(C#N)c3)c2)CC1` yielded an XC50 of 637 nM. Compound `COc1ccc(OC)c(C=NNc2nc3ccccc3[nH]2)c1` has an XC50 of 729 nM. `C=Cc1sc(CNCCCNc2cc(=O)c3ccccc3[nH]2)c(C)c1Br` was tested, and the XC50 was 1050 nM. Work on `O=C(NCCN1CCOCC1)c1ccc(N2CCC(Oc3ccc4ccccc4c3)CC2)nc1` yielded an XC50 of 763 nM. `Oc1ccc(-c2cc(-c3ccc(O)cc3)nc(-c3ccccc3)n2)cc1` showed an XC50 of 783 nM. For `CCOC(=O)c1ccc(NC(=O)N(Cc2ccc(-c3ccc(CN4CCNCC4)cc3)cc2)C2CCN(Cc3ccccc3)CC2)cc1`, the XC50 was 797 nM. `COc1cc(C(=O)NC2CC(C)(C)N(C)C(C)(C)C2)ccc1-c1nc2cc(Cl)c(Cl)cc2[nH]1` was tested, and the XC50 was 788 nM. `CCCCCC(=O)N1CCOC(CCN2CCC(c3ccccc3)CC2)(c2ccc(Cl)c(Cl)c2)C1` (configuration not stated) showed an XC50 of 1120 nM. With `CN1CCN(Cc2ccc(-c3ccc4c(Nc5ccc(F)cc5Cl)ccnc4c3)o2)CC1` the XC50 was 143 nM. Compound `Cc1cccc2nc(-c3cccc(-c4cccc(CN5CCC(CO)CC5)c4)c3)[nH]c12` has an XC50 of 724 nM. In the case of `COc1ccc2nccc(N3C[C@H]4C[C@@H]3CN4CCNCc3ccc4c(n3)NC(=O)CS4)c2n1`, the XC50 is reported as 973 nM. With `NC(=O)c1cccc(C(=O)Nc2ccc(-c3cccc(-c4nc5cc(C(F)(F)F)ccc5[nH]4)c3)cc2)c1` the XC50 was 350 nM. `O=S(=O)(NC1CCN(c2ccnc3cc(Cl)ccc23)C1)c1ccc(F)cc1` (configuration not stated) showed an XC50 of 475 nM. In the case of `CC(C)c1cccc(OCC2CCN(c3ccc(C(=O)Nc4ccccc4)cn3)CC2)c1`, the XC50 is reported as 701 nM. For `COc1cc(Cc2cnc(N)nc2N)cc(OCCCCNS(=O)(=O)C(F)(F)F)c1OC`, the XC50 was 1040 nM. `O=C(Nc1cccc(C(F)(F)F)c1)NC1CCN(c2ccnc3cc(Cl)ccc23)C1` (configuration not stated) gave an XC50 of 120 nM. Compound `CCCN1CCC(c2c[nH]c3ccc(NC(=O)Nc4cccc(Cl)c4Cl)cc23)CC1` has an XC50 of 815 nM. Compound `O=C1c2ccccc2C(=O)N1c1ccc(S(=O)(=O)N2CCOCC2)cc1` has an XC50 of 1260 nM.
